From patent US5407936A, “Benzimidazole derivative, process for preparing the same, antiemetic agent containing the same as active ingredient and intermediate compound for preparing the same” (priority 1991, dated 1995)

Key:
5-HT3 receptor = biological target: T1, 5-HT3 receptor (Rattus norvegicus, UniProt P35563); experiment: 5-HT3 antagonistic activity: antagonism of Bezold-Jarisch reflex (reflective bradycardia) induced by 5-HT; assay type: in vivo, S.D. male rats; conditions: for Duration time of 5-HT3 antagonistic activity: i.v., time until inhibitory rate of reflective bradycardia became 20% or less; for ED50: rat, iv, read-out: ED50 [95% Confidence limits], antagonistic activity against Bezold-Jarisch reflex
T1 construct: S.D. male rats (weighing 200 to 350 g) were anesthetized; from tissue; host or cells: whole anesthetized S.D. male rats (in vivo; endogenous receptor)
T1 sequence (P35563 24-483): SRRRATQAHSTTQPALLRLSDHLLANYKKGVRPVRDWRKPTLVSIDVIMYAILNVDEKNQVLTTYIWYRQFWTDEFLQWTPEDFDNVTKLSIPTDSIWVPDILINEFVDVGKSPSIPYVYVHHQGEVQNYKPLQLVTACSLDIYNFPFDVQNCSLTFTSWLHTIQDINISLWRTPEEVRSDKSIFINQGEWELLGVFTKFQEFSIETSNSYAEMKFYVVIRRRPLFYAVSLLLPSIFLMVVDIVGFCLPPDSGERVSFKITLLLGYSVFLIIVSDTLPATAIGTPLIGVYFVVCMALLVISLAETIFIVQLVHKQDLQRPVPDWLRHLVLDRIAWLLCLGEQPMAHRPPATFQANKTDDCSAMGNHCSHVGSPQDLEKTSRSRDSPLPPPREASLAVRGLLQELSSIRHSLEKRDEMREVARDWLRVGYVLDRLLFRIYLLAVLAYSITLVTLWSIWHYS
Description: 5-HT3 antagonistic activity:
The 5-HT3 antagonistic activity was measured in accordance with the method by Collins et al. [Br. J. Pharmacol., 80, 570P (1983)] using as an index the inhibitory activity against reflective bradycardia [Bezold-Jarisch reflex] induced by 5-HT.
That is, S.D. male rats (weighing 200 to 350 g) were anesthetized by intraperitoneal administration of urethane ([…]) and introduced with cannula into the carotid and the pulse frequency was measured. 5-HT was dissolved in physiological saline and intravenously administered (0.04 mg/kg). The test compounds were dissolved in physiological saline or physiological saline containing 5% ethanol and intravenously administered five minutes before the administration of 5-HT.
ED50 values were obtained from a dose-response curve of inhibitory rate of reflective bradycardia by the test compounds and the 5-HT3 antagonistic activity was compared.
In addition, the test compounds (about 25 times amount of the above ED50 value) and 5-HT were intravenously administered in the same manner as mentioned above and thereafter 5-HT (0.04 mg/kg) was intravenously administered with the passage of time.

[1] = tested on: cisplatin-induced vomiting; experiment: Preventive and therapeutic effects against vomiting induced by cisplatin; assay type: in vivo, male ferrets; conditions: i.v.; for Inhibitory rate, preventive effect: 5 minutes before cisplatin (10 mg/kg), vomiting counted for 4 hours; for Inhibitory rate, therapeutic effect: after appearance of vomiting (about 80 minutes after cisplatin 10 mg/kg), counted for 4 hours
Description: Preventive and therapeutic effects against vomiting induced by cisplatin:
The experiment was conducted in accordance with the method by Costall et al. [Neuropharmacology, 26, 1321-1326 (1987)].
That is, male ferrets (weighing 1.0 to 1.6 kg, three animals in each group) underwent an implant operation of cannula at the jugular vein for intravenous administration. For evaluating the preventive effects, the test compounds dissolved in a physiological saline or in a physiological saline containing 5% ethanol or a physiological saline (control) were intravenously administered to the ferrets three days after the operation, then after 5 minutes, cisplatin (10 mg/kg) dissolved in a physiological saline was intravenously administered to the ferrets over 30 seconds, and a number of vomiting caused between just after the administration of cisplatin and 4 hours after the administration was measured. As to the therapeutic effects, cisplatin (10 mg/kg) dissolved in a physiological saline was intravenously administered to the ferrets three days after the operation over 30 seconds. After appearance of vomiting (about 80 minutes after the administration of cisplatin), the test compounds dissolved in a physiological saline or in a physiological saline containing 5% ethanol or a physiological saline (control) were intravenously administered to the ferrets and then a number of vomiting occurred during 4 hours thereafter was counted. The inhibitory rate was calculated by the following formula: Inhibitory rate (%)={1-(mean number of vomiting in the group administered with the test compound/mean number of vomiting in the control group)}×100

ddY Male mice = experiment: Acute toxicity; assay type: in vivo; conditions: 100 mg/kg intravenously; observed for 7 days; five mice per group
Excerpt: The same as in Experiment 2

[2] = tested on: vomiting caused by the administration of the chemotherapeutics such as cisplatin; conditions: Cancer. Chemother. Pharmacol., 23, 389-391 (1989); cited from earlier work

CC(C)n1c(N2CCN(C)CC2)nc2cc(Cl)c(N)cc21 [Compound 1, 6-Amino-5-chloro-1-isopropyl-2-(4-methyl-1-piperazinyl)benzimidazole]
Duration time of 5-HT3 antagonistic activity (5-HT3 receptor; dose 1.0 μg/kg): > 8 h | Inhibitory rate, preventive effect ([1]; 0.01 mg/kg): 100% | Inhibitory rate, therapeutic effect ([1]; 0.01 mg/kg): 100%

Cc1nccn1CC1CCc2c(c3ccccc3n2C)C1=O (centres unmarked) [Reference compound, Ondansetron]
Duration time of 5-HT3 antagonistic activity (5-HT3 receptor; dose 100 μg/kg): 2 h | ED50 (5-HT3 receptor): 4 µg/kg | Inhibitory rate, preventive effect ([1]; 0.1 mg/kg): 31% | Inhibitory rate, therapeutic effect ([1]; 0.1 mg/kg): 77% | Death of animals (ddY Male mice): all animals were dead | Inhibition of vomiting caused by chemotherapeutics such as cisplatin [2]: effective

CC(C)n1c(N2CCN(C)CC2)nc2cc(Cl)c(N)cc21.O=C(O)/C=C\C(=O)O.O=C(O)/C=C\C(=O)O [Compound 2, 6-Amino-5-chloro-1-isopropyl-2-(4-methyl-1-piperazinyl)benzimidazole dimaleate]
Duration time of 5-HT3 antagonistic activity (5-HT3 receptor; dose 1.0 μg/kg): > 8 h | Inhibitory rate, preventive effect ([1]; 0.01 mg/kg): 85% | Inhibitory rate, therapeutic effect ([1]; 0.01 mg/kg): 100%

CN1CCN(c2nc3ccccc3n2C)CC1 [Compound A, 1-Methyl-2-(4-methyl-1-piperazinyl)benzimidazole]
5-HT3 antagonistic activity compared to the compound of the present invention (5-HT3 receptor; in words, reason why duration was not measured): quite low as compared to the compound of the present invention | ED50 (5-HT3 receptor): > 3 µg/kg
